Test results reported in US20040259096A1, “Receptor capture assay” (priority 2001, published 2004).

Assays:
Ah receptor [1] = assay: Biotinylated ARNT assay, neutravidin capture, PCR and gel densitometry; type: biochemical; settings: 1 μl of 1 nM beta-naphthoflavone
Description: Activation of the Ah receptor with dose was performed in a microfuge tube containing 50 μl of Ah receptor preparation, 1 μl of 200 μg/ml biotinylated ARNT, and 1 μl of 1 nM beta-naphthoflavone and incubated for 1 hr at 30° C. To minimize non-specific interactions, 1-2 μg of salmon sperm DNA was added to the activated complex, along with NaCl to a final concentration of 60 mM. After 10 min at room temperature, varying amounts of nucleic acid-tracer (50-500 fmole) was added, and the reaction allowed to incubate for an additional 10 min at room temperature. The reaction mix (40 μl) was transferred to a neutravidin-coated plate and incubated for 30 min on a Wallac plate shaker at room temperature. The wells were washed five times with Wash Buffer B, soaking wells for 3 min with wash buffer during each cycle, followed by two washes with ultrapure water.
For PCR analysis, 50 μl of PCR reagent was added and the well contents were subjected to 28 cycles of PCR amplification, using GeneAmp PCR System 2700 (Applied Biosystems, Foster City, Calif.). PCR was performed using 50 μl of PCR Master Mix (Promega, Madison, Wis.) diluted to the appropriate concentration with nuclease-free water and 1 μM of each primer was used per PCR reaction. Following the addition of PCR mix, the microtiter strip was sealed with adhesive and placed in the thermocylcer. Samples were initially heated to 95° C. for 5 min to denature the Ah receptor/ARNT complex and free the nucleic acid for PCR analysis then subjected to 28 cycles of 94° C., 30 sec, 52° C., 30 sec, 72° C., 45 sec, followed by 72° C. for 5 min, then cooling to 4° C.
PCR product, 20 μl, was analyzed by 4% agarose gel electrophoresis, with PCR product visualized under UV light by ethidium bromide staining UV light-illuminated gels were photographed using a Polaroid MP 4 Land Camera and Polaroid Type 55 film. Transmission densitometry with film negatives was performed and areas under the peak calculated using arbitrary units.

Ah receptor [2] = settings: Carver et al., 1994 JBC 269:30109-30112; cited from earlier work
Ah receptor [3] = assay: Receptor capture assay employing ARNT-GST fusion protein, anti-GST plate, PCR and gel densitometry; type: biochemical, murine; settings: B-naphthoflavone 10 μM; duplicate samples; 30 cycles PCR; DMSO control 363
Description: The receptor was activated in the presence of ARNT/GST binding partner and test sample. Sufficient ARNT/GST was added to displace the endogenous ARNT present in the Ah receptor preparation. In a tube, 98 μl Hepa1c1c7 (0.8 mg) extract was incubated with 1 μl GST-ARNT (50 ng) and 1 μl sample (e.g. BNF or vehicle alone) at 30° C. for 1 hour. Non-specific binding of the nucleic acid-tracer was reduced by preincubating the reaction mix with NaCl to 60 mM and 2 μg salmon sperm DNA for 15 min. at room temperature. Nucleic acid-tracer was added to 50 fmol and the reaction was incubated 20 min at room temperature. The complex was captured on a commercially available 96-well anti-GST plate (Perkin Elmer Life Sciences, Boston, Mass.). The anti-GST coated microtiter plate was washed once with Wallac Wash Buffer prior to addition of 50 μl receptor-DNA reaction. […]
Samples were analyzed by agarose gel electrophoresis with visualization of ethidium-bromide stained DNA bands under UV radiation Typically, 20 μl of each sample was analyzed in the 4% gels, yielding bright fluorescent bands from the positive controls. […] Negatives were scanned using an HPscanjet 2200c and DNA bands were quantified using ScionImage (Scion Corporation) software.
Duplicate samples were analyzed with the protocol described above with B-naphthoflavone (10 μM) or vehicle (DMSO) following 30 cycles PCR. […]

AhR = assay: Receptor capture assay, real-time PCR, rodent cytosol as source of AhR; type: biochemical; settings: TCDD 625 ppt

Row | SMILES | area under the peak, PCR product densitometry (Ah receptor [1]; Nucleic Acid-Tracer 63 fmol) | area under the peak, PCR product densitometry (Ah receptor [1]; Nucleic Acid-Tracer 125 fmol) | area under the peak, PCR product densitometry (Ah receptor [1]; Nucleic Acid-Tracer 250 fmol) | area under the peak, PCR product densitometry (Ah receptor [1]; Nucleic Acid-Tracer 500 fmol) | affinity for the Ah receptor relative to TCDD (Ah receptor [2]) | average value of quantified DNA bands (Ah receptor [3]) | Ct Values (AhR)
1 | O=c1cc(-c2ccccc2)oc2ccc3ccccc3c12 [BNF, beta-naphthoflavone] | 459 arbitrary units | 349 arbitrary units | 392 arbitrary units | 392 arbitrary units | approximately an order of magnitude less affinity for the Ah receptor than TCDD | 3013 | –
2 | Clc1cc2c(cc1Cl)Oc1cc(Cl)c(Cl)cc1O2 [TCDD, 2,3,7,8-tetrachlorodibenzo-p-dioxin] | – | – | – | – | – | – | 22.23
